ChEMBL document CHEMBL1201862, “PubChem BioAssay data set” (2004)
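Following 48 hours of exposure in 96-well plates, responses at five concentrations were used to interpolate endpoints linearly. The concentration for 50% growth inhibition is given as GI50.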 Activity calls are given as the source filed them. Cut-off read from the data, not from the text of the source: active = GI50 up to about 1.1 µM and inactive = higher. Starred links: 1 amine or outer side, 2 acyl side, 3 side chain; linkers in the order of their positions; H or OH if unused. Non-standard residues stand in square brackets, D forms with d. Residues, ends and D or L forms follow the SMILES beside them. ξ: configuration not given here. X24 = O=C(C(CC(O)CO)O[*:1])[*:2]; Ile(3ξ) = CCC(C)[C@H](N)C(=O)O; NMeV = CN[C@H](C(=O)O)C(C)C; NMeA = CN[C@@H](C)C(=O)O; βAla = NCCC(=O)O

Tests used:
Assay in all cases: NCI anticancer screen, dose series, 48 h
DMS-273 = test system: DMS-273
K562 = test system: K562
HL-60 = test system: HL-60
SK-MEL-28 = test system: SK-MEL-28
NCI-H226 = test system: NCI-H226
SK-MEL-2 = test system: SK-MEL-2
CAKI-1 = test system: CAKI-1
UACC-62 = test system: UACC-62
OVCAR-5 = test system: OVCAR-5
LOX IMVI = test system: LOX IMVI
OVCAR-8 = test system: OVCAR-8
RPMI-8226 = test system: RPMI-8226
SN12C = test system: SN12C
NCI-H460 = test system: NCI-H460

Structure (SMILES) | GI50 (DMS-273) | GI50 (K562) | GI50 (HL-60) | GI50 (SK-MEL-28) | GI50 (NCI-H226) | GI50 (SK-MEL-2) | GI50 (CAKI-1) | GI50 (UACC-62) | GI50 (OVCAR-5) | GI50 (LOX IMVI) | GI50 (OVCAR-8) | GI50 (RPMI-8226) | GI50 (SN12C) | GI50 (NCI-H460)
COc1ccc2c(c1)[n+]([O-])c(C(=O)C/C(=N\NC(=O)C[N+](C)(C)C)C(=O)Nc1cc(Cl)ccc1Cl)c(C)[n+]2[O-] | > 100 µM (inactive) | > 100 µM (inactive) | 88.3 µM (inactive) | > 100 µM (inactive) | > 100 µM (inactive) | > 100 µM (inactive) | > 100 µM (inactive) | 97.7 µM (inactive) | > 100 µM (inactive) | > 100 µM (inactive) | > 100 µM (inactive) | > 100 µM (inactive) | > 100 µM (inactive) | > 100 µM (inactive)
O=C(Cc1ccc([N+](=O)[O-])c([N+](=O)[O-])c1CC(=O)C(=O)Nc1cc(Cl)ccc1Cl)C(=O)Nc1cc(Cl)ccc1Cl | 30.3 µM (inactive) | 33.5 µM (inactive) | > 100 µM (inactive) | > 100 µM (inactive) | 82.2 µM (inactive) | > 100 µM (inactive) | > 100 µM (inactive) | > 100 µM (inactive) | > 100 µM (inactive) | 26.2 µM (inactive) | > 100 µM (inactive) | 28 µM (inactive) | 59.8 µM (inactive) | 72.6 µM (inactive)
NC(CO)c1ccc(OCc2ccccc2)cc1 (centres undefined) | > 100 µM (inactive) | > 100 µM (inactive) | 24.4 µM (inactive) | > 100 µM (inactive) | > 100 µM (inactive) | > 100 µM (inactive) | > 53.7 µM (inactive) | > 70.8 µM (inactive) | > 100 µM (inactive) | 47.3 µM (inactive) | > 100 µM (inactive) | > 100 µM (inactive) | > 91.8 µM (inactive) | > 100 µM (inactive)
COc1ccc(-c2cc(C(=O)Nc3cccc(C(F)(F)F)c3)nc(S)n2)cc1 | > 100 µM (inactive) | > 100 µM (inactive) | > 100 µM (inactive) | > 100 µM (inactive) | > 100 µM (inactive) | > 100 µM (inactive) | > 100 µM (inactive) | > 100 µM (inactive) | > 100 µM (inactive) | > 100 µM (inactive) | > 100 µM (inactive) | > 100 µM (inactive) | > 100 µM (inactive) | > 100 µM (inactive)
N#C/C(=N\c1ccccc1N(C(=O)c1ccccc1)C(=O)c1ccccc1)c1ccccc1 | 3.83 µM (inactive) | 3.49 µM (inactive) | 0.923 µM (active) | > 100 µM (inactive) | > 69.5 µM (inactive) | 42.1 µM (inactive) | 47.6 µM (inactive) | 35.9 µM (inactive) | > 47.4 µM (inactive) | 27.2 µM (inactive) | 10.3 µM (inactive) | 5.97 µM (inactive) | > 71.8 µM (inactive) | 32.8 µM (inactive)
CCC(C)[C@@H]1NC(=O)[C@@H]2CCCN2C(=O)C(CC(O)CO)OC(=O)CCNC(=O)[C@H](C)N(C)C(=O)[C@H](C(C)C)N(C)C1=O (some centres undefined) (cyclo([Ile(3ξ)][NMeV][NMeA][βAla][X24]P)) | > 100 µM (inactive) | > 100 µM (inactive) | > 100 µM (inactive) | > 100 µM (inactive) | > 100 µM (inactive) | > 100 µM (inactive) | > 100 µM (inactive) | > 100 µM (inactive) | > 100 µM (inactive) | 84.5 µM (inactive) | > 100 µM (inactive) | > 100 µM (inactive) | > 100 µM (inactive) | > 100 µM (inactive)
